Patent US20080113016A1, “Method for Prevention or Treatment of Inflammatory Disease” (priority 2004, published 2008)
“Also recorded” adds a separate entry of the source. Read-outs that look alike come from different tables or passages of the source. Marks after values point to notes of the source that are not given here.

What was measured:
[1] = tested on: rats with adjuvant arthritis; assay: Adjuvant arthritis: radiographic joint damage, semiquantitative score; type: in vivo, rat
Procedure: (§1) Adjuvant arthritis. Male Lewis rats (150-200 g) were immunized at the base of the tail with 0.1 ml of complete Freund's adjuvant (CFA) on day 0. […] Clinical signs of arthritis generally begin on day 10, and paw swelling was determined every second day by water displacement plethysmometry. […] Prior to daily drug delivery, rats were individually assessed for ability to walk and bear weight on their hind paws. On the day of sacrifice, a probe with a 24 gm bending force was applied to the lateral ankle of each hind paw for 4 s. Animals were graded (0/1) on whether they vocalized. Roentgenograms were obtained of the hind paws to assess bone changes using a semi-quantitative scoring system (demineralization (0 to 2+), ankle and mid-foot erosions (0 to 2+), calcaneal erosion (0 to 1+), heterotopic bone formation (0 to 1+) (maximum possible score=6). Paws were fixed in formalin and decalcified for 2-3 days. Sections from paraffin embedded tissue were stained with hematoxylin and eosin. A synovial inflammation score was determined using a semi-quantitative scale that measures synovial inflammation (0-2+), cartilage integrity (0-2+), bone erosions (0-2+), marrow infiltration (0-2+), proteoglycans loss (0-2+ in safranin 0 stained sections) and extra-articular inflammation (0-2+) (maximum score 12). Subjective assessments were made by an investigator blinded to the drug treatment.

[2] = tested on: rats with adjuvant arthritis; assay: Adjuvant arthritis: paw swelling by water displacement plethysmometry; type: in vivo, rat
Procedure: […] Paw swelling was measured by water displacement plethysmometry.
(§2) Intrathecal (IT) catherization of rats. All animals were handled in accordance with USDA guidelines, and all procedures have been carefully reviewed and approved by the institutional animal subjects committee. Rats (200-300 g) were housed for at least one week before use. Isoflurane anesthesia was used for all surgical procedures. Animals were implanted with an intrathecal (IT) catheter modified from the method previously described. Yaksh, et al. Physiol. Behav. 17:1031-6, 1976. After a six day recovery period, all animals except those that appeared to have sensory or motor abnormalities (less than 5% of the total number) were used for experiments. For IT administration, 10 μl of drug or vehicle followed by 10 μl of isotonic saline was injected through the catheter.
as §1

[3] = tested on: rats with adjuvant arthritis; assay: Adjuvant arthritis: behavioral pain (vocalization to 24 gm ankle pressure); type: in vivo, rat; settings: 24 gm bending force to lateral ankle for 4 s on day 20
Source text: The effect of IT SB203580 on the clinical manifestations of adjuvant arthritis was examined. […] Paw swelling was inversely correlated with behavioral analysis as determined by weight bearing in hind limbs.
as §2
Adjuvant arthritis. Male Lewis rats (150-200 g) were immunized at the base of the tail with 0.1 ml of complete Freund's adjuvant (CFA) on day 0. […] Clinical signs of arthritis generally begin on day 10, and paw swelling was determined every second day by water displacement plethysmometry. […] Prior to daily drug delivery, rats were individually assessed for ability to walk and bear weight on their hind paws. […]

[4] = tested on: synovial IL-1, IL-6 and MMP3 gene expression; assay: Adjuvant arthritis: joint gene expression by quantitative real time PCR; type: in vivo, rat; settings: intrathecal 8 μg daily day 8-20 vs IT saline, hind paws
Procedure: Rats were immunized with CFA on day 0 and treated daily with intrathecal SB203580 (8 μg) or intrathecal saline beginning on day 8-20. (A) Quantitative real time PCR was performed on the hind paws. Normal rat joints are also shown as a control.
Q-PCR. Ankle joints were excised and trimmed of skin. The tissue was then pulverized and RNA extracted using RNA-STAT-60 and standard techniques. The RNA was reversed transcribed into cDNA using random hexamer primers. TaqMan PCR amplification reactions were carried out in reaction volumes of 25 μl in MicroAmp Optical Plates and MicroAmp Optical Caps using the TaqMan Universal Master Mix with a Perkin Elmer 5700 thermal cycler. Each sample was analyzed in triplicate using 50 ng of cDNA in the reaction. Thermal cycling was initiated with a 2 min incubation at 50° C., followed by 10 min at 95° C. to activate the AmpliTaq polymerase and then 40 cycles of 95° C. for 15 s/60° C. for 1 min. GADPH was used as a loading control for in each sample. The standard curve method was used for quantification as previously described. Boyle, et al. Arthritis Res. Ther. 5:R352-360, 2003.

[5] = tested on: rats with adjuvant arthritis; assay: Adjuvant arthritis: histologic joint damage, semiquantitative score; type: in vivo, rat
Procedure: Rats were immunized with CFA on day 0 and treated daily with intrathecal SB203580 (8 μg) or intrathecal saline beginning on day 8-20. Left panel is vehicle and right panel is SB203580. […] Representative sections are shown illustrating decreased erosions, cartilage damage and synovial inflammation in the treated group.
Adjuvant arthritis. Male Lewis rats (150-200 g) were immunized at the base of the tail with 0.1 ml of complete Freund's adjuvant (CFA) on day 0. Drug (IT or subcutaneous SB203580 or IT vehicle) treatment started on day 8 and continued on a daily basis until day 20. Clinical signs of arthritis generally begin on day 10, and paw swelling was determined every second day by water displacement plethysmometry. […] Prior to daily drug delivery, rats were individually assessed for ability to walk and bear weight on their hind paws. On the day of sacrifice, a probe with a 24 gm bending force was applied to the lateral ankle of each hind paw for 4 s. Animals were graded (0/1) on whether they vocalized. […]

spinal nerve ligation = settings: administered intrathecally before spinal nerve ligation, cited from earlier work
[6] = intrathecal etanercept 100 or 300 μg q.o.d.

| Molecule | Radiographic joint damage (bone erosions, cartilage loss, demineralization) ([1]; intrathecal 8 μg daily day 8-20, p<0.05) | Radiographic joint damage ([1]; systemic (subcutaneous) treatment, same dose 8 μg) | Paw swelling ([2]; intrathecal 8 μg daily day 8-20, compared with IT saline or same dose subcutaneously) | Effect in adjuvant arthritis (paw swelling, synovial infiltration, joint destruction) ([2]; same dose (8 μg) delivered systemically (subcutaneous)) | Positive vocalization (animals that vocalize / total number) ([3]; intrathecal (IT) SB203580 8 μg daily day 8-20) | Positive vocalization (animals that vocalize / total number) ([3]; subcutaneous (SC) SB203580 8 μg daily day 8-20) | Synovial IL-1 gene expression [4] | Synovial IL-6 gene expression [4] | MMP3 gene expression ([4]; p<0.05) | Histologic joint damage and inflammation (semiquantitative score) ([5]; intrathecal 8 μg daily day 8-20 vs IT saline) | Leukocyte infiltration into synovium ([5]; intrathecal catheter administration) | Radiographic evidence of joint destruction [1, 6] | Paw swelling [2, 6] | Paw swelling ([2]; subcutaneous 50 μg every other day from day 1, day 20) | Paw swelling ([2]; subcutaneous 100 μg every other day from day 1, day 20) | Paw swelling ([2]; subcutaneous 300 μg every other day from day 1, day 20) | Paw swelling on day 20 ([2]; systemic treatment with the same doses as intrathecal) | Allodynia (spinal nerve ligation) | Increase in spinal cord P-p38 / p38 activation (spinal nerve ligation) | Increase in spinal cord P-p38 / p38 activation (spinal nerve ligation; listed as etanercept) |
| --- | --- | --- | --- | --- | --- | --- | --- | --- | --- | --- | --- | --- | --- | --- | --- | --- | --- | --- | --- | --- |
| C[S+]([O-])c1ccc(-c2nc(-c3ccncc3)c(-c3ccc(F)cc3)[nH]2)cc1 (centres unmarked) [SB203580] | significantly decreased | no effect | significantly decreased; also recorded: markedly suppressed | no effect | 0/6** | 4/6 | significantly decreased | significantly decreased | significantly decreased | significantly decreased | decreased |  |  |  |  |  |  |  |  |  |
| Etanercept |  |  |  |  |  |  |  |  |  |  |  | significantly decreased | significantly decreased | 1.51 ± 0.20 mL | 1.75 ± 0.18 mL | 1.67 ± 0.16 mL | no effect | inhibits | blocks | inhibits |
